What was measured:
[1] = cited from earlier work
[2] = target: acetylcholinesterase (AChE) (Mus musculus, UniProt P21836); settings: SFN 10 mg/kg oral
Description: (§1) All efforts were made to minimize suffering and the number of animals used. One day before dissection, only water was provided and food was fasted. Acclimatized experimental animals were grouped into seven containing 7 mice each (Table 1 and Fig. 1).
(§2) Prepare the test substance at a concentration appropriate for each test using purified water. […] Amyloid beta (Aβ1-42) was prepared and administered following standard protocols. BSEP was orally administered at doses of 200 mg/kg/day and 400 mg/kg/day for one week before and after Aβ1-42 injection, each at a volume of 200 μL. Following intravenous administration, broccoli extract was orally administered at the same doses for two weeks.
(§3) Aβ1-42 ([…]) was surgically injected into the brain ventricle of anesthetized mice (intravenous [IV] injection of xylazine [5 mg/kg] and ketamine [50 mg/kg]). The skull was precisely punctured at specific coordinates using a small drill, and amyloid beta was injected deeply into the brain using a microinjector. The control group underwent the same procedure with saline injections instead. Following surgery, the incision sites were disinfected and sutured, and the animals were allowed to recover in a cage.

TNF-α = TNF-α gene expression in LPS-induced RAW 264.7 macrophages (qPCR); assay type: cell-based, murine
Description: RAW 264.7 cells at passage 3 were seeded at 1 × 10^5 cells/mL to each well of a 6-well cell culture plate. The cells were cultured until it reached 70−80 % confluency and media were changing every 2 days. Upon confluency, removed the old media and cells were pre-treated with 1 mL non-serum media for 10−15 min in the incubator. All controls and samples, dilutions are prepared in non-serum media. Removed non-serum media and added with LPS (1 μg/mL) in non-serum media for 24 h. Next day, removed the LPS containing media and washed once with 1 × PBS and then the cells were treated with SFN solutions for 1 h. Removed the treatment solution, washed twice with 1 × PBS, pH 7.4. The cells were dissociated and collected by sedimentation (1500 rpm, 6 min).
The total RNA content was extracted following the TRIzol method according to the manufacturer's protocol. Quantification of mRNAs abundance was determined using 1-step reverse transcription real-time quantitative PCR with the QuantiTect SYBR Green RT-PCR Kit (Qiagen, Germany), performed on a Rotor-Gene Q Real-Time system (Qiagen, Germany). […] Target gene expression was normalized to constitutively expressed ACT-β gene, and the relative quantity of target gene mRNAs was expressed as 2^−ΔΔCt using the relative comparative threshold cycle method as previously described [[33], [34], [35]]. […]

Aβ1-42-induced AD mice [3] = assay: Passive avoidance test; assay type: in vivo, ICR male mice
Description: as §1, with “Seven-week-old ICR male mice (25−30 g body weight range) were purchased from the Samtaco BIO, KOREA (Osan-si, Gyeonggi-do, Korea). […] All” for “All”
as §2, §3
The passive avoidance experiment is a commonly used method for assessing enhancements in learning and memory capabilities. The experiment was conducted in a room with noise levels below 60 dB and dim lighting. The measuring instrument, Shuttle Box Test Package (Med Associates Inc., Vermont, USA), consisting of two rooms of equal size (25 × 25 cm). An automatic guillotine door was installed on the wall separating the two rooms. One room was illuminated (20 W light bulb), while the other remained dark. The mice were trained to associate the dark environment with an aversive stimulus. In the experiment (n = 3), upon entry into the dark room, an electric shock (foot-shock) was administered by passing a current of 3 mA for 5 s through a stainless-steel grid beneath the room. This procedure facilitated the mouse's recognition of the association between the dark environment and the aversive stimulus.

[4] = cited from earlier work; remark: listed apart in the source
[5] = following the consumption of broccoli sprouts or supplements; cited from earlier work
acetylcholine (ACh) = assay: Brain tissue acetylcholine (ACh) level; design: species or system ICR male mice; settings: mouse, in vivo
Description: as §1, with “Seven-week-old ICR male mice (25−30 g body weight range) were purchased from the Samtaco BIO, KOREA (Osan-si, Gyeonggi-do, Korea). […] All” for “All”
as §2, §3

Aβ1-42-induced AD mice [6] = assay: Brain tissue TUNEL assay (hippocampal apoptosis); assay type: in vivo, ICR male mice; settings: Aβ1-42 AD mice; SFN 10 mg/kg oral; AD group 40.3 ± 10.4
Description: as §1, with “Seven-week-old ICR male mice (25−30 g body weight range) were purchased from the Samtaco BIO, KOREA (Osan-si, Gyeonggi-do, Korea). […] All” for “All”
as §2, §3

[7] = rodents, within a few hours post-administration, oral or intraperitoneal; cited from earlier work
[8] = In vivo oral absorption of SFN and BSE in rats (pharmacokinetics); design: species or system Sprague–Dawley rats; settings: for AUCinf / AUClast / Cmax / MRT / T1/2 / Tmax: plasma SFN
Description: Sprague–Dawley rats (males, 6–7 weeks old, 200–250 g) were purchased from G-bio (Gwangju, Republic of Korea). The animals were housed under standard conditions in terms of temperature (23 ± 2 °C), relative humidity (RH; 55 ± 10 %), and light (12/12 h light/dark cycle). The animals had ad libitum access to a standard laboratory diet (Nestlé Purina PetCare Research, St. Louis, MO, USA) and ion-sterilized tap water. Ethical approval for this study was obtained from the IACUC of Mokpo National University (Jeonnam, Republic of Korea; approval no. MNU-IACUC-2023-009).
To examine the distinction of pharmacokinetic parameters of SFN after IV injection and oral administration of SFN or BSEP (containing 3 % SFN), Sprague–Dawley rats were orally administered 400 μL of SFN dissolved in 0.5 % sodium CMC (5 mg/kg, SFN-oral) or aqueous solution of BSEP (equivalent to 5 mg/kg SFN, BSEP-oral). To calculate the oral bioavailability, rats were intravenously injected with 200 μL of SFN (5 mg/kg SFN dissolved in 0.5 % sodium CMC) via the femoral vein. Then, 200-μL blood samples were collected from the cannulated femoral artery at predetermined time points and immediately centrifuged at 13,000×g for 5 min at 4 °C. The separated plasma samples were kept frozen at −80 °C until analysis.
To determine the plasma concentrations of SFN, the working solutions of SFN of 20, 15, 10, 5, 2, 1, 0.6, and 0.2 μg/mL, and 5 μg/mL phenylethyl isothiocyanate (internal standard, IS) were prepared in acetonitrile. Then, 10 μL of each working solution and 10 μL of IS were spiked with 180 μL of rat blank plasma for standard solution. Separately, 180 μL of each plasma sample was spiked with 10 μL of IS solution and 10 μL of acetonitrile. Next, 200 μL of a mixture of acetonitrile, water, and ethanol (25:25:50, v/v/v) was added to each plasma sample spiked with IS, followed by vortex mixing. After centrifugation at 13,000×g for 5 min at room temperature, the supernatant was transferred to another vial for further extraction using an HLB SPF μElution plate (Waters Corp., Milford, MA, USA). Each well of the SPE plate was conditioned and equilibrated by 200 μL of methanol and water, respectively. Then, the 400 μL of the collected supernatant was added to each well of the plate and aspirated under a 5 H g vacuum. After washing with 200 μL of water and 50 % methanol, each well was eluted with 400 μL (200 μL × 2 times) of acetonitrile.
Each eluted sample (10 μL) was injected into a UPLC system (ACQUITY UPLC; Waters Corp.) equipped with an ACQUITY UPLC BEH C18 column (2.1 × 50 mm, 1.7 μm; Waters Corp.) at 50 °C. SFN and IS were eluted by the mobile phase (10 mM ammonium acetate in water:0.1 % formic acid in acetonitrile [3:7, v/v]) at a flow rate of 0.6 mL/min. A mass spectrometer (Xevo TQ-S; Waters Corp.) was used for ionization of SFN or the IS (in positive ion multiple reaction-monitoring mode) at an electrospray voltage of 3.0 kV, with a source temperature of 120 °C, desolvation temperature of 500 °C, and desolvation gas flow rate of 800 L/h. SFN quantification was performed by reference to the m/z transition 178.0 → 114.0 at a cone voltage of 24 V and collision energy of 30 eV; for IS, the m/z transition was 164.0 → 130.0 at a cone voltage of 23 V and collision energy of 22 eV.

Aβ1-42-induced AD mice [9] = assay: Morris water maze test; assay type: in vivo, ICR male mice; settings: Aβ1-42 AD mice; for average escape latency time over the three days: AD group 42.7 ± 9.13, normal 27.66 ± 3.97
Description: as §1, with “Seven-week-old ICR male mice (25−30 g body weight range) were purchased from the Samtaco BIO, KOREA (Osan-si, Gyeonggi-do, Korea). […] All” for “All”
as §2, §3
(§4) The water maze test evaluates the spatial memory of experimental animals by filling a circular pool (120 cm diameter × 60 cm hight) with water to a depth of 30 cm (maintained at 23 ± 2 °C). An escape zone (10 cm diameter) is designated in one section of the four quadrants, with the platform positioned 1 cm below the water surface and made invisible with skim milk powder. If the animal fails to locate the platform within 60 s, it is gently guided there and allowed to familiarize itself for 20 s. The test is conducted at 30-min intervals, four times daily for three consecutive days. Observations are recorded using a ceiling-mounted camera and analyzed using SMART 3.0 software (Panlab S.L., Barcelona, Spain).

Aβ1-42-induced AD mice [10] = assay: Retention test of Morris water maze; assay type: in vivo; settings: 60 s free swimming, platform removed, control group 9.51 ± 5.2
Description: as §4

[11] = single oral dose 5 mg/kg SFN (SFN in 0.5 % sodium CMC; BSEP aqueous solution equivalent to 5 mg/kg SFN)

Sequence of acetylcholinesterase (AChE) (P21836 32-614): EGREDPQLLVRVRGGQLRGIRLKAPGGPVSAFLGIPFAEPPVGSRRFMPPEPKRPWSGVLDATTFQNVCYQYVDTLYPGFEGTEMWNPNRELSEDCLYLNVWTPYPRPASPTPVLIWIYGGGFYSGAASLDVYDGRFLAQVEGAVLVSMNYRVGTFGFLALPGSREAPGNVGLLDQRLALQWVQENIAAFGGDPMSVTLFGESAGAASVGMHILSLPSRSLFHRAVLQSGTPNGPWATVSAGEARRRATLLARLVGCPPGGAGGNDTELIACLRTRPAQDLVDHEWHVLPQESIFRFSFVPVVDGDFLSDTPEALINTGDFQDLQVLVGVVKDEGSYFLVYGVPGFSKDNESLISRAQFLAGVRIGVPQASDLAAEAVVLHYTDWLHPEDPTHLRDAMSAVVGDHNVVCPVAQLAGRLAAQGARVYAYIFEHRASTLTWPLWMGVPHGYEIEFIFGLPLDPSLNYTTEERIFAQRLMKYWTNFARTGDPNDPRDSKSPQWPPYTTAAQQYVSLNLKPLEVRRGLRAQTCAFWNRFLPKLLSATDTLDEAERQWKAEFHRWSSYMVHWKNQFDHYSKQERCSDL

1-isothiocyanato-4-methylsulfonylbutane [SFN]
typical urinary excretion, of the administered dose [1]: 70−90% | brain AChE activity relative to normal group (100 %) ([2]; AD control 162 %): 105% | brain AChE activity ([2]; AD control 1707.1 ± 97.12, normal 1057.44 ± 75.41): 1104.65 ± 123.41 mU/mL | reduction of TNF-α expression versus control (LPS stimulation only) (TNF-α; 1:100 dilution (of SFN 210 ppm; of 1 % BSEP)): 30–40% | TNF-α gene expression (TNF-α; undiluted (positive control SFN 210 ppm; 1 % BSEP solution), LPS 1 μg/mL): significant downregulation | time spent in the brightly lit room before entering the dark room (Aβ1-42-induced AD mice [3]; SFN 10 mg/kg oral, AD control 19): 90 s | time spent in the brightly lit room before entering the dark room (Aβ1-42-induced AD mice [3]; SFN 10 mg/kg oral, AD control 51): 166 s | time spent in the brightly lit room before entering the dark room (Aβ1-42-induced AD mice [3]; SFN 10 mg/kg oral, first of three values, AD control 25): 37 s | doses that may lead to toxicity [4]: exceeding 150 mg/kg body weight | SFN level detected in human plasma [5]: nanomolar to low micromolar levels | brain ACh level (acetylcholine (ACh)): 1.2 ± 0.1 nmol/µL | number of TUNEL-positive cells in the hippocampus (Aβ1-42-induced AD mice [6]): 19.0 ± 5.2 cells | SFN brain concentrations [7]: 0.5 to 2 µM | Bioavailability ([8]; single IV dose 5 mg/kg SFN (reference)): 100% | AUCinf ([8]; single IV dose 5 mg/kg SFN): 390 ± 33.7 ng·h/mL | AUClast ([8]; single IV dose 5 mg/kg SFN): 380 ± 27.5 ng·h/mL | Cmax ([8]; single IV dose 5 mg/kg SFN): 414 ± 65.1 ng/mL | MRT ([8]; single IV dose 5 mg/kg SFN): 0.971 ± 0.224 h | T1/2 ([8]; single IV dose 5 mg/kg SFN): 1.35 ± 0.806 h | Tmax ([8]; single IV dose 5 mg/kg SFN): 0.170 ± 0.000 h | AUCinf [8, 11]: 259 ± 39.6 ng·h/mL | AUClast [8, 11]: 241 ± 46.1 ng·h/mL | Cmax [8, 11]: 96.2 ± 13.1 ng/mL | MRT [8, 11]: 3.14 ± 0.835 h | T1/2 [8, 11]: 1.82 ± 0.574 h | Tmax [8, 11]: 1.00 ± 0.000 h | Bioavailability ([8]; single oral dose 5 mg/kg SFN (SFN in 0.5 % sodium CMC; BSEP aqueous solution equivalent to 5 mg/kg SFN), versus SFN-IV): 63.4 ± 12.1% | escape latency times by the third day (Aβ1-42-induced AD mice [9]; SFN 10 mg/kg oral): comparable to those of the normal control group | average escape latency time over the three days (Aβ1-42-induced AD mice [9]; SFN 10 mg/kg oral): 28.01 ± 2.95 s | time spent in the quadrant where the platform was previously located (Aβ1-42-induced AD mice [10]; SFN 10 mg/kg): 8.83 ± 5.92 s

COc1cc2c(cc1OC)C(=O)C(CC1CCN(Cc3ccccc3)CC1)C2 (stereo not drawn) [donepezil]
time spent in the brightly lit room before entering the dark room (Aβ1-42-induced AD mice [3]; donepezil 5 mg/kg oral, AD control 19): 100 s | time spent in the brightly lit room before entering the dark room (Aβ1-42-induced AD mice [3]; donepezil 5 mg/kg oral, AD control 51): 149 s | time spent in the brightly lit room before entering the dark room (Aβ1-42-induced AD mice [3]; donepezil 5 mg/kg oral, first of three values, AD control 25): 29 s | escape latency times by the third day (Aβ1-42-induced AD mice [9]; donepezil 5 mg/kg oral): comparable to those of the normal control group | average escape latency time over the three days (Aβ1-42-induced AD mice [9]; donepezil 5 mg/kg oral): 34.97 ± 3.21 s | time spent in the quadrant where the platform was previously located (Aβ1-42-induced AD mice [10]; donepezil 5 mg/kg): 16.26 ± 4.61 s

Reference: article PMC11875816 (Heliyon, 2025)
